One block for each compound: values may come before it.
Experiments:
[1] = Moisture sorption (DVS) profile; format: physicochemical
Description: Moisture Sorption: Moisture sorption data was collected using a VTI SGA 100 symmetrical vapor sorption analyzer. A sample size of approximately 5-10 mg was used in a platinum pan. Hygroscopicity was evaluated from 5 to 95% RH in increments of 5% RH. Data for adsorption and desorption cycles were collected. Equilibrium criteria were set at 0.001% weight change in 10 minutes with a maximum equilibration time of 180 minutes.

[2] = Thermodynamic stability of solid form; format: physicochemical
[3] = Bioavailability compared between crystalline forms; format: in vivo; conditions: relative to AMG 397 anhydrous form 4
[4] = Solubility compared between crystalline forms; format: physicochemical; conditions: relative to AMG 397 anhydrous form 4
Water content by KF = format: physicochemical
Description: AMG 397 hydrate Form 7 was prepared by charging ˜4 g of AMG 397 with 1-propanol and then slurrying at 55° C. for 4 days. Isolated solids were subsequently dried under vacuum at 95-105° C. for 7 days. Water content by KF was 0.9% initially and 5.6% after equilibration at ambient conditions. DVS indicates variable water content to 0-12% based on environment.

Structure (SMILES): CO[C@]1(CN2CCN3CCCC[C@@H]3C2)/C=C/C[C@H](C)[C@@H](C)S(=O)(=O)NC(=O)c2ccc3c(c2)N(C[C@@H]2CC[C@H]21)C[C@@]1(CCCc2cc(Cl)ccc21)CO3 [amorphous AMG 397]
moisture sorption weight gain ([1]; by 95% relative humidity): ~6.4%
moisture sorption weight gain ([1]; by 95% relative humidity, listed as amorphous form of AMG 397): 6.4%

Structure (SMILES): CO[C@]1(CN2CCN3CCCC[C@@H]3C2)/C=C/C[C@H](C)[C@@H](C)S(=O)(=O)NC(=O)c2ccc3c(c2)N(C[C@@H]2CC[C@H]21)C[C@@]1(CCCc2cc(Cl)ccc21)CO3 [anhydrous form 4]
thermodynamic stability of form [2]: thermodynamically stable form
moisture sorption weight gain ([1]; by 95% relative humidity): 4.5%
moisture sorption weight gain ([1]; by 95% relative humidity, listed as crystalline anhydrous form 4 of AMG 397): ~4.5%

Structure (SMILES): CO[C@]1(CN2CCN3CCCC[C@@H]3C2)/C=C/C[C@H](C)[C@@H](C)S(=O)(=O)NC(=O)c2ccc3c(c2)N(C[C@@H]2CC[C@H]21)C[C@@]1(CCCc2cc(Cl)ccc21)CO3 [anhydrous form 6]
moisture sorption weight gain ([1]; 50-95% relative humidity): 10%
moisture sorption weight gain ([1]; between 0-50% relative humidity): 0.5%
moisture sorption weight gain ([1]; by 95% relative humidity): 10%

The remaining lines, values ahead:

bioavailability [3]: higher
solubility [4]: higher
moisture sorption weight gain ([1]; by 95% relative humidity): 3.3%
moisture sorption weight gain ([1]; by 95% relative humidity, listed as crystalline hydrate form 1 of AMG 397): ~3.3%
Structure (SMILES): CO[C@]1(CN2CCN3CCCC[C@@H]3C2)/C=C/C[C@H](C)[C@@H](C)S(=O)(=O)NC(=O)c2ccc3c(c2)N(C[C@@H]2CC[C@H]21)C[C@@]1(CCCc2cc(Cl)ccc21)CO3 [hydrate form 1]

moisture sorption weight gain ([1]; by 95% relative humidity): 3%
moisture sorption weight gain ([1]; by 95% relative humidity, listed as crystalline hydrate form 2 of AMG 397): ~3.0%
Structure (SMILES): CO[C@]1(CN2CCN3CCCC[C@@H]3C2)/C=C/C[C@H](C)[C@@H](C)S(=O)(=O)NC(=O)c2ccc3c(c2)N(C[C@@H]2CC[C@H]21)C[C@@]1(CCCc2cc(Cl)ccc21)CO3 [hydrate form 2]

moisture sorption weight gain ([1]; by 95% relative humidity): 1.9%
moisture sorption weight gain ([1]; by 95% relative humidity, listed as crystalline hydrate form 3 of AMG 397): ~1.9%
Structure (SMILES): CO[C@]1(CN2CCN3CCCC[C@@H]3C2)/C=C/C[C@H](C)[C@@H](C)S(=O)(=O)NC(=O)c2ccc3c(c2)N(C[C@@H]2CC[C@H]21)C[C@@]1(CCCc2cc(Cl)ccc21)CO3 [hydrate form 3]

variable water content (DVS) ([1]; based on environment): 0-12%
moisture sorption weight gain ([1]; by 95% relative humidity): 0-12%
variable water content (DVS) ([1]; moisture sorption profile): 0-12 % wt
water content by KF (Water content by KF; after equilibration at ambient conditions): 5.6%
water content by KF (Water content by KF; initially): 0.9%
Structure (SMILES): CO[C@]1(CN2CCN3CCCC[C@@H]3C2)/C=C/C[C@H](C)[C@@H](C)S(=O)(=O)NC(=O)c2ccc3c(c2)N(C[C@@H]2CC[C@H]21)C[C@@]1(CCCc2cc(Cl)ccc21)CO3 [hydrate form 7]

Reference: patent US20250115622A1, “Crystalline Forms Of An MCL-1 Inhibitor” (AMGEN INC., priority 2022, published 2025)
